Read-outs that look alike come from different tables or passages of the source.
Key:
CA IX [1] = target: T1, CA IX (Homo sapiens, UniProt Q16790); assay: biochemical
CA IX [2] = target: T1, CA IX; settings: cited from earlier work
[3] = RP-LC chromatographic lipophilicity (logkw); assay type: physicochemical; settings: chromatographic lipophilicity from gradient RP-LC, Luna RP-C18, water/acetonitrile with 0.1% formic acid, 30 °C
[4] = experimental value used for the QSPR model, library compounds (IDs A…, B…), equals log10 of Ki in nM, read-out: pKi (exp.) (converted)
[5] = observed Ki of library compounds (IDs A…, B…), ref ChEMBL and BindingDB, read-out: Ki
[6] = experimental value from the library Ki (IDs A…, B…), values equal log10 of Ki in nM, read-out: pKi (exp.) (converted)
[7] = library compounds with IDs A… and B…, from observed Ki (nM), read-out: pKi (exp.) (converted)
[8] = library compounds with IDs A… and B…, observed Ki, ref ChEMBL, BindingDB, read-out: Ki
[9] = read-out: pKi (exp.) (converted)

NS(=O)(=O)c1ccc(-n2nnc(CS[C@H]3O[C@H](CO)[C@@H](O)[C@@H](O)[C@H]3O)c2I)cc1 [B0123]
Ki (CA IX [1]; [4]): 6.5 nM
Ki (CA IX [2]; [5]): 6.5 nM

NS(=O)(=O)c1ccc(NC(=S)Nc2ccc(C3c4ccc(O)cc4Oc4cc(O)ccc43)c(C(=O)O)c2)c(F)c1 [B0365]
Ki (CA IX [1]; [4]): 30 nM
Ki (CA IX [2]; [5]): 30 nM

COC(=O)[C@H]1O[C@H](SNCc2ccc(S(N)(=O)=O)cc2)[C@@H](OC(C)=O)[C@H](OC(C)=O)[C@H]1OC(C)=O [B0598]
Ki (CA IX [1]; [4]): 102 nM
Ki (CA IX [2]; [5]): 102 nM

C[C@]12CC[C@@H](OS(N)(=O)=O)CC1=C[C@@H](O)[C@@H]1[C@@H]2CC[C@]2(C)C(=O)CC[C@@H]12 [A1368]
Ki (CA IX [1]): 65 nM
Ki (CA IX [2]): 65 nM

CCO[C@H]1Oc2ccccc2C(=O)[C@H]1/C=N\c1ccc(S(=O)(=O)Nc2cc(C)on2)cc1 [B0311]
Ki (CA IX [1]; [6]): 24 nM
Ki (CA IX [2]; [5]): 24 nM

Cc1cc(S(=O)(=O)NC(=N)Nc2cccc(S(N)(=O)=O)c2)c(SCc2cc(=O)[nH]c3ccccc23)cc1Cl [C116]
logkw [3]: 3.800

Cc1cc(S(=O)(=O)NC(=N)Nc2ccccc2S(N)(=O)=O)c(SCc2ccc(C(F)(F)F)cc2)cc1Cl [C107]
logkw [3]: 4.430

CN(C)C1=CCN(c2ccncc2S(N)(=O)=O)C=C1 [B0189]
Ki (CA IX [1]; [4]): 8.99 nM
Ki (CA IX [2]; [5]): 9 nM

NS(=O)(=O)c1ccc(N[C@H]2SC[C@@H](c3ccc(Cl)cc3Cl)N2C2CCCCC2)cc1 [B0713]
Ki (CA IX [1]; [4]): 342 nM
Ki (CA IX [2]; [5]): 342 nM

N#C[C@H]1C(COc2ccc(S(N)(=O)=O)cc2)=NON1O [A0707]
Ki (CA IX [1]; [7]): 11.3 nM
Ki (CA IX [2]; [8]): 11.3 nM

Cc1cc(S(=O)(=O)NC(=N)NCc2ccc(S(N)(=O)=O)cc2)c(SCc2cccc3ccccc23)cc1Cl [C114]
logkw [3]: 3.990

NS(=O)(=O)c1ccc(C(=O)NCc2cn([C@H]3O[C@@H](CO)[C@H](O)[C@@H](O)[C@@H]3O)nn2)cc1 [B0735]
Ki (CA IX [1]; [9]): 442 nM
Ki (CA IX [2]; read-out: Ki): 442 nM

CN1N[C@@H](S(N)(=O)=O)S[C@H]1NC(=O)CCSSCCC(=O)/N=c1\sc(S(N)(=O)=O)nn1C [A0620]
Ki (CA IX [1]; [6]): 9.29 nM
Ki (CA IX [2]; [5]): 9.3 nM

NS(=O)(=O)OC[C@H]1O[C@H](O)[C@H](O)[C@@H](O)[C@H]1O [A1346]
Ki (CA IX [1]; [6]): 61.9 nM
Ki (CA IX [2]; [5]): 62 nM

NS(=O)(=O)c1nnc(NC(=O)[C@]23C[C@H]4C[C@H](C[C@H](C4)C2)C3)s1 [A0389]
Ki (CA IX [1]; [9]): 6.4 nM
Ki (CA IX [2]; read-out: Ki): 6.4 nM

NS(=O)(=O)c1ccc(-n2cc(CO[C@H]3O[C@@H](CO)[C@H](O)[C@H](O)[C@@H]3O)nn2)cc1 [B0594]
Ki (CA IX [1]; [9]): 101 nM
Ki (CA IX [2]; read-out: Ki): 101 nM

CC(=O)OC[C@H]1O[C@H](CC(=O)/C=C\c2ccc(O)cc2)[C@@H](OC(C)=O)[C@H](OC(C)=O)[C@@H]1OC(C)=O [B0789]
Ki (CA IX [1]; [7]): 2900 nM
Ki (CA IX [2]; [8]): 2900 nM

CC(=O)[C@H]1NN(c2ccccc2)[C@H]([C@H](C#N)C(=O)Nc2ccc(S(N)(=O)=O)cc2)S1 [A0013]
Ki (CA IX [1]; [6]): 0.33 nM
Ki (CA IX [2]; [5]): 0.33 nM

C/C(=N/Nc1ccc(S(N)(=O)=O)cc1)c1cc2cc(Br)ccc2oc1=O [B0309]
Ki (CA IX [1]; [9]): 24 nM
Ki (CA IX [2]; read-out: Ki): 24 nM

COc1ccc2c(c1)CCN(S(N)(=O)=O)[C@@H]2c1ccc(N)cc1 [B0230]
Ki (CA IX [1]; [7]): 12 nM
Ki (CA IX [2]; [8]): 12 nM

O=C(N/N=C\c1cccc(Br)c1)Nc1nnc(S)s1 [B0891]
Ki (CA IX [1]; [7]): 10100 nM
Ki (CA IX [2]; [8]): 10100 nM

COc1cccc(/C=C\C(=O)C[C@@H]2O[C@@H](COC(C)=O)[C@@H](OC(C)=O)[C@@H](OC(C)=O)[C@H]2OC(C)=O)c1 [B0574]
Ki (CA IX [1]; [7]): 92.9 nM
Ki (CA IX [2]; [8]): 93 nM

Nc1nc(=O)[nH]c2c1c(-c1ccc(Br)cc1)cn2-c1ccc(S(N)(=O)=O)cc1 [B0312]
Ki (CA IX [1]; [9]): 24 nM
Ki (CA IX [2]; read-out: Ki): 24 nM

CCOc1ccc(S(=O)(=O)N2CCOCC2)cc1-c1nnc2c(n1)c(C)nn2C [B0310]
Ki (CA IX [1]; [6]): 24 nM
Ki (CA IX [2]; [5]): 24 nM

CC1=CC(C)C=C(C)N1Cc1ccc(S(N)(=O)=O)cc1 [B0412]
Ki (CA IX [1]; [6]): 38 nM
Ki (CA IX [2]; [5]): 38 nM

NS(=O)(=O)c1ccc(-n2cc(/C=N/Nc3nc(-c4cc5ccccc5oc4=O)cs3)c(-c3ccccc3)n2)cc1 [B0285]
Ki (CA IX [1]; [4]): 20 nM
Ki (CA IX [2]; [5]): 20 nM

NS(=O)(=O)c1ccc(-n2cc(/C=N/Nc3nc(-c4cc5cc(Br)ccc5oc4=O)cs3)c(-c3ccccc3)n2)cc1 [B0298]
Ki (CA IX [1]; [9]): 22 nM
Ki (CA IX [2]; read-out: Ki): 22 nM

CC(=O)/N=C1\SC(S(N)(=O)=O)=N[C@@H]1C [B0187]
Ki (CA IX [1]; [9]): 8.99 nM
Ki (CA IX [2]; read-out: Ki): 9 nM

CC(=O)OC[C@H]1O[C@H](SCc2nnn(-c3ccc(S(N)(=O)=O)cc3)c2C#CCO)[C@@H](OC(C)=O)[C@H](OC(C)=O)[C@@H]1OC(C)=O [B0570]
Ki (CA IX [1]; [6]): 91 nM
Ki (CA IX [2]; [5]): 91 nM

C[C@H]1O[C@@H](NS(N)(=O)=O)[C@@H](O)[C@H](O)[C@H]1O [B0772]
Ki (CA IX [1]; [9]): 899 nM
Ki (CA IX [2]; read-out: Ki): 900 nM

C[C@@H](Sc1nc(-c2ccc(Cl)c(F)c2)c(C#N)c(=O)[nH]1)C(=O)Nc1ccc(S(N)(=O)=O)cc1 [A1157]
Ki (CA IX [1]; [6]): 37 nM
Ki (CA IX [2]; [5]): 37 nM
